In US20210106650A1, “MICROBICIDAL COMPOSITIONS AND METHODS FOR TREATMENT OF VIRAL INFECTIONS” (University of Louisville Research Foundation, Inc., priority 2015, published 2021):
In brackets after ≈: the same amount, converted by molar mass. Where a name gives a salt, the structure may show the parent alone. Read-outs that look alike come from different tables or passages of the source.

What was measured:
HSV-2 [1] = assay: HSV-2 plaque assay in Vero E6 cells with EF eluants; type: cell-based
Method: Initially, experiments were undertaken to determine the in vitro efficacy of unmodified EFs that encapsulated antivirals (ACV and TDF) or are surface-modified with GRFT, against HSV-2 infection. […] The top row of each plate contained cells that were incubated with blank PLGA or PLCL EFs. […] After infection, cells were incubated with IgG to neutralize free HSV-2, and EF eluants were administered to Vero E6 cells. Appropriate controls of: [no treatment/no virus], [no treatment/virus], [blank PLGA or PLCL EFs, virus], and [free ACV, virus] were conducted. […] Similarly, fibers were assessed after 28 days to ensure bioactivity after one month in SVF. […] Only one of the three IC50 curves is shown for each in FIG. 13 for purposes of brevity.

[2] = tested on: HIV-1 pseudovirus (CCR5-using clade A strain Q769.h5); assay: Env-pseudotyped virus infectivity assay in TZM-bl cells (luciferase); type: cell-based; conditions: similar administration durations
Source text: Materials. Carboxyl-terminated 50:50 poly(lactic-co-glycolic acid) (PLGA, 0.55-0.75 dL/g, 31-57 k MW) was purchased from Lactel Absorbable Polymers (Cupertino, Calif.). Dichloromethane (DCM), dimethyl sulfoxide (DMSO), and the MTT assay kit were obtained from Sigma Aldrich (St Louis, Mo.). 1,1,1,3,3,3-hexafluoro-2-propanol (HFIP) was obtained from Fisher Scientific (Pittsburgh, Pa.). GRFT (MW 12.7 kDa) was produced in Nicotiana benthamiana as previously reported. Fetal bovine serum (FBS) and antibiotics (penicillin/streptomycin) were purchased from VWR. Dulbecco's modified Eagle's medium (DMEM) and keratinocyte serum-free medium were purchased from Invitrogen. The EDC-NHS and enzyme-linked immunosorbent assay (ELISA) kits were purchased from ThermoFisher. Simulated vaginal fluid (SVF) was prepared as described previously. […]
Cell lines. […] Vaginal keratinocyte, VK2/E6E7 (VK2); ectocervical, Ect1/E6E7 (Ect1); and endocervical, End1/E6E7 (End1) cell lines, obtained from ATCC, were evaluated in cytotoxicity experiments. […]
In vitro antiviral activity of GRFT-EFs. […] The anti-HIV activity of the GRFT-EFs was measured as a reduction in firefly luciferase (Luc) reporter gene expression in the presence of GRFT-EFs compared to unmodified EFs after a single round of infection in TZM-bl cells. […]

HIV-1 isolates = conditions: most HIV-1 isolates; cited from earlier work
HSV-2 [3] = conditions: in vitro; read-out: cell-dependent EC50; cited from earlier work
[4] = tested on: HIV-1 pseudovirus (CCR5-using clade A strain Q769.h5); conditions: same virus strain (Q769.h5); cited from earlier work
HSV-2 [5] = conditions: in vivo; cited from earlier work
HIV-1BaL = assay: HIV-1 infection of polarized ectocervical tissue explants; type: cell-based, human
[6] = tested on: HIV-1-enveloped pseudovirus; conditions: subcutaneous administration in mice; cited from earlier work
HIV-1 = assay: Env-pseudotyped virus infectivity assay of TDF EFs in TZM-bl cells; type: cell-based; conditions: EFs given 1 and 24 hr before infection
Method: A reporter gene expression Env-pseudotyped virus infectivity assay was used, as described previously, to measure the HIV-1 antiviral activity of the TDF PLGA and PLCL EFs. Antiviral activity was measured as a reduction in firefly Luciferase (Luc) reporter gene expression after administration of different EF concentrations 1 and 24 hr before a single round of infection in TZM-bl cells (i.e., the engineered HeLa cell clone that stably expresses CD4, CCR5, and CXCR4 receptors and contains HIV-1 Tat-regulated reporter genes for firefly luciferase and B-galactosidase). One set of 8 control wells received only cells plus virus (virus control), and another set of 8 wells received cells only (background control). After 48 hr incubation, culture medium was removed from each well, an equal volume of Bright-Glo™ reagent was added, and luminescence was measured. The EC50 was determined as the TDF-EF concentration that caused a 50% reduction in RLU relative to virus control wells after subtraction of background RLU (FIG. 14).

Molecule: Nc1nc2c(ncn2COCCO)c(=O)[nH]1 [free ACV, acyclovir]
- IC50 (HSV-2 [1]; Human alphaherpesvirus 2, Vero C1008, 72 h, fiber eluant collected after 3 days, read-out: average IC50): 0.287 µg/mL (≈ 1.27 µM)
- IC50 (HSV-2 [1]; Human alphaherpesvirus 2, Vero C1008, 672 h, after 28 days in SVF, read-out: IC50): 0.293 µg/mL (≈ 1.3 µM)
- IC50 (HSV-2 [1]; Human alphaherpesvirus 2, Vero C1008, eluant released between 21 and 28 days, read-out: IC50): 0.293 µg/mL (≈ 1.3 µM)

Molecule: griffithsin [free GRFT]
- IC50 of free GRFT [2]: 233±2.7 ng GRFT/mL
- in vitro inhibitory activity (EC50) (HIV-1 isolates): mid-pM to low-nM range
- EC50 (HSV-2 [3]): 2.3 to 143 µM
- previous literature measurement for free GRFT [4]: 157 ng/mL
- HSV-2 cell entry (HSV-2 [5]): modestly inhibited
- HSV-2 cell-to-cell spread (HSV-2 [5]): completely inhibiting
- block of HIV-1 infection in ectocervical explants (HIV-1BaL): blocks HIV-1 infection
- concentration down to which HIV-1 infection was blocked (HIV-1BaL; ectocervical tissue, 10^4 TCID50 HIV-1BaL overnight, 21 days culture): 10 µM
- antiviral activity of serum from treated animals [6]: retained antiviral activity

Molecule: CC(C)OC(=O)OCOP(=O)(CO[C@H](C)Cn1cnc2c(N)ncnc21)OCOC(=O)OC(C)C [free TDF, tenofovir disoproxil fumarate]
- protection against HIV-1 (HIV-1): complete protection against HIV-1
